Results on one compound are retold here after PMC4286029 (Inflammation Research, 2014).

Molecules are shown by their SMILES. A value given as a limit tells only on which side of the number the result lay.

One assay deals with T1, JNK1α1 (Homo sapiens, UniProt P45983).
T1 construct: purchased Millipore Co. Ltd. (KinaseProfiler service)
Briefly: KinaseProfiler selectivity: JNK1α1. It counts as biochemical. The protocol: (§1) […]; The selectivity of JTE-052 for other kinases was assessed using KinaseProfiler™ (Millipore Co. Ltd.). […].

Another assay concerns the target T2, JNK3 (Homo sapiens, UniProt P53779).
T2 construct: purchased Millipore Co. Ltd. (KinaseProfiler service)
The experiment in a line: KinaseProfiler selectivity: JNK3. It counts as biochemical. As to the method: as §1

Assay [1] deals with IL-2-induced IFN-γ production. The experiment in a line: IL-2-induced IFN-γ production in mice. Type of assay: in vivo, DBA/1J mice. Conditions: Mus musculus, po. As to the method:
DBA/1J mice were dosed once via oral gavage with compounds. At 1 or 6 h after compound administration, the mice were injected intraperitoneally with 2 μg of recombinant mouse IL-2 and 10 μg of biotinylated anti-mouse IFN-γ capture antibody. After 6 h, the mice were euthanized, and blood was collected. Serum IFN-γ was quantified using a Mouse IFN-γ In Vivo Capture Assay Set (BD Biosciences).
After 1 or 6 h, they were injected with IL-2 and anti-mouse IFN-γ capture antibody. At 6 h after the injection, blood samples were collected, and the serum IFN-γ levels were measured.

T1 sequence (P45983 1-384 isoform P45983-2, species assumed): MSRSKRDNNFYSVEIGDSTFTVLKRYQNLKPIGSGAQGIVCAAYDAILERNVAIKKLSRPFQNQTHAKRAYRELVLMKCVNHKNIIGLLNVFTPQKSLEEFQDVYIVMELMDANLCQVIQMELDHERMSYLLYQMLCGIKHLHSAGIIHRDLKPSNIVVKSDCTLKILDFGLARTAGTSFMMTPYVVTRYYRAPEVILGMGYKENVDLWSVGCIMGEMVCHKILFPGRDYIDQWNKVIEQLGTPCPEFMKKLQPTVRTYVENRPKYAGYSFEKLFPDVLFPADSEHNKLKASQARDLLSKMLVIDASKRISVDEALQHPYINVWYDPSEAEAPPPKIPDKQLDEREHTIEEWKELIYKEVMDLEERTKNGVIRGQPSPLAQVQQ
T2 sequence (P53779 whole entry, species assumed): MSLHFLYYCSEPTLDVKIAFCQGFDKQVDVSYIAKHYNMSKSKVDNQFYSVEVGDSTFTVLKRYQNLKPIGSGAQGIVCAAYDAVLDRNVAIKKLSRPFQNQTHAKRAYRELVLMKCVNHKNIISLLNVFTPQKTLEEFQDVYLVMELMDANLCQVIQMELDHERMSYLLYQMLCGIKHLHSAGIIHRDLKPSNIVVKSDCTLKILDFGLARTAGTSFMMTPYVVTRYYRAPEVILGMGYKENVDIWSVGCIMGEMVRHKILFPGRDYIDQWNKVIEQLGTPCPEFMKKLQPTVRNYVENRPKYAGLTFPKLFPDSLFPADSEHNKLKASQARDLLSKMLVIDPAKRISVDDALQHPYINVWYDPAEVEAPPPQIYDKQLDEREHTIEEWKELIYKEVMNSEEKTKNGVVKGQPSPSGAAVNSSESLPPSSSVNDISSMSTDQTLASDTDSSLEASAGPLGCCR

Regarding `C[C@H]1CN(C(=O)CC#N)[C@]12CCN(c1ncnc3[nH]ccc13)C2` [JTE-052], the half-inhibitory concentration (IC50) against JNK1α1 and at JNK3 was more than 1 µM throughout. Also, the ED50 (usually the dose that gives a 50% effect, or the effect in half of the subjects) stood at 0.24 mg/kg in assay [1] (dosed 1 h prior to IL-2 injection) and 1.3 mg/kg in assay [1] (dosed 6 h prior to IL-2 injection).
